From PubChem BioAssay (NCI) come the findings set out here.

Molecules are shown by their SMILES. Values joined by “and” are separate entries in the source; they are usually repeats but may differ in a detail not shown here. Equal entries are not always repeated.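 Method: 48-hour compound exposure of cells in 96-well plates, five concentrations, linear interpolation of endpoints. Here, GI50 denotes the concentration required for 50% inhibition of growth. The concentration for full growth arrest is given as TGI.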

Test systems include OVCAR-4 ovarian; NCI-H460 lung; SK-OV-3 ovarian; SF-295 CNS; RPMI-8226 leukemia; NCI/ADR-RES ovarian; T-47D breast; MOLT-4 leukemia; HS 578T breast; OVCAR-3 ovarian.
Holding throughout (assay): NCI anticancer screen, dose series, 48 h

As to `CS(=O)(=O)OCCCCOS(C)(=O)=O`, the GI50 in the experiment with OVCAR-4 ovarian is > 1000 µM; in the experiment on NCI-H460 lung, 223 µM; with SK-OV-3 ovarian, 804 µM; in the experiment on SF-295 CNS, 423 µM; with RPMI-8226 leukemia, 95.9 µM; in the experiment on NCI/ADR-RES ovarian, > 1000 µM. The GI50 in the experiment with T-47D breast was 336 µM; with HS 578T breast, > 555 µM; in the experiment with OVCAR-3 ovarian it was > 1000 µM. Also, the TGI in the experiment on OVCAR-4 ovarian is 223 µM and > 1000 µM; in the experiment on NCI-H460 lung it was 242 µM and > 1000 µM; in the experiment on SK-OV-3 ovarian, > 1000 µM; with SF-295 CNS, 237 µM and > 1000 µM; in the experiment with RPMI-8226 leukemia it was 250 µM and > 1000 µM; with NCI/ADR-RES ovarian, 250 µM and > 1000 µM. Also, the TGI is > 464 µM in the experiment on T-47D breast; 233 µM and 992 µM in the experiment with MOLT-4 leukemia; > 1000 µM in the experiment on HS 578T breast; > 1000 µM with OVCAR-3 ovarian.
Consider `O=S1(=O)OCc2ccccc21`, for which the TGI with OVCAR-4 ovarian, in the experiment on NCI-H460 lung, in the experiment with SK-OV-3 ovarian, with SF-295 CNS, in the experiment with RPMI-8226 leukemia and in the experiment with NCI/ADR-RES ovarian was > 100 µM in each case. The TGI in the experiment with T-47D breast was > 100 µM; in the experiment on MOLT-4 leukemia, 78.9 µM; in the experiment on HS 578T breast, > 100 µM; in the experiment with OVCAR-3 ovarian, > 100 µM.
With `C/C(=N\NC(=O)c1cccc(S(=O)(=O)N2CCN(C)CC2)c1)c1cc(Cl)ccc1O`, the GI50 in the experiment with OVCAR-4 ovarian was 0.545 µM; with NCI-H460 lung, 0.395 µM; in the experiment with SK-OV-3 ovarian, 0.938 µM; in the experiment with SF-295 CNS, 0.998 µM; in the experiment with RPMI-8226 leukemia, 1.33 µM; with NCI/ADR-RES ovarian it was 1.33 µM. The GI50 in the experiment with T-47D breast is 0.634 µM; with MOLT-4 leukemia it was 0.47 µM; in the experiment on HS 578T breast, 4.54 µM; with OVCAR-3 ovarian, 0.385 µM. The TGI was > 100 µM in the experiment on OVCAR-4 ovarian; > 32 µM with NCI-H460 lung; > 54.6 µM in the experiment with SK-OV-3 ovarian; 21.9 µM with SF-295 CNS; > 100 µM in the experiment on RPMI-8226 leukemia; 14.9 µM in the experiment with NCI/ADR-RES ovarian. Also, the TGI was > 100 µM in the experiment with T-47D breast, > 49.4 µM in the experiment with MOLT-4 leukemia, > 74.8 µM with HS 578T breast and > 100 µM in the experiment with OVCAR-3 ovarian.
On to `OCCNC(=S)Nc1ccc(-c2nc(N3C[C@H]4CC[C@@H](C3)O4)c3cccn3n2)cc1`, for which the GI50 was 0.0389 µM in the experiment on OVCAR-4 ovarian; 0.0312 µM with NCI-H460 lung; 0.0162 µM in the experiment with SK-OV-3 ovarian; 0.0328 µM in the experiment on SF-295 CNS; 0.0371 µM in the experiment on RPMI-8226 leukemia; 0.172 µM with NCI/ADR-RES ovarian. For the same compound, the GI50 with T-47D breast is < 0.01 µM; in the experiment with MOLT-4 leukemia, 0.09 µM; in the experiment with HS 578T breast, 0.0221 µM; in the experiment on OVCAR-3 ovarian it was 0.0664 µM. The TGI with OVCAR-4 ovarian amounted to 0.63 µM; with NCI-H460 lung, 19.4 µM; with SK-OV-3 ovarian, 0.104 µM; with SF-295 CNS, 0.265 µM; in the experiment with RPMI-8226 leukemia, 1.47 µM; in the experiment with NCI/ADR-RES ovarian it was 2.16 µM. Further, the TGI with T-47D breast was 0.0389 µM; in the experiment on MOLT-4 leukemia, 17.1 µM; in the experiment on HS 578T breast, 0.248 µM; in the experiment with OVCAR-3 ovarian, 4.39 µM.
As to `O=C1c2cccc3c([N+](=O)[O-])ccc(c23)C(=O)N1CCCCl`, the GI50 was 4.77 µM in the experiment on OVCAR-4 ovarian; 5.55 µM in the experiment with NCI-H460 lung; > 10 µM with SK-OV-3 ovarian; > 10 µM in the experiment on SF-295 CNS; 4.61 µM in the experiment with RPMI-8226 leukemia; 8.42 µM with NCI/ADR-RES ovarian. Further, the GI50 in the experiment on T-47D breast is 2.65 µM; in the experiment on MOLT-4 leukemia it was 2.41 µM; with HS 578T breast it was 4.6 µM; in the experiment with OVCAR-3 ovarian, 2.2 µM. The TGI in the experiment with OVCAR-4 ovarian, with NCI-H460 lung, in the experiment on SK-OV-3 ovarian, with SF-295 CNS, in the experiment on RPMI-8226 leukemia and in the experiment with NCI/ADR-RES ovarian was > 10 µM in each case. Besides, the TGI in the experiment with T-47D breast was > 10 µM; in the experiment with MOLT-4 leukemia, 5.95 µM; in the experiment with HS 578T breast, > 10 µM; in the experiment on OVCAR-3 ovarian, 4.72 µM.
Consider `COc1ccc2c(c1)[n+]([O-])c(/C(C)=N/NC(N)=S)c(C)[n+]2[O-]`, for which the TGI with OVCAR-4 ovarian was > 100 µM; with NCI-H460 lung, > 71.4 µM; in the experiment with SK-OV-3 ovarian, > 100 µM; in the experiment with SF-295 CNS it was > 100 µM; in the experiment with RPMI-8226 leukemia it was > 100 µM; with NCI/ADR-RES ovarian it was 96.5 µM. Further, the TGI was > 100 µM in the experiment on T-47D breast, > 83.8 µM in the experiment on MOLT-4 leukemia, > 100 µM with HS 578T breast and > 95.7 µM in the experiment on OVCAR-3 ovarian.
For `S=P(C1CCCCC1)(C1CCCCC1)C(c1cccnc1)N1CCCC1` (centres undefined), the TGI was 55.7 µM with OVCAR-4 ovarian; 50.7 µM in the experiment with NCI-H460 lung; > 100 µM in the experiment with SK-OV-3 ovarian; 49.2 µM with SF-295 CNS; 38.3 µM with RPMI-8226 leukemia; 38.6 µM in the experiment with NCI/ADR-RES ovarian. For the same compound, the TGI in the experiment with T-47D breast was > 100 µM; in the experiment on MOLT-4 leukemia it was 42.7 µM; with HS 578T breast it was 84.3 µM; with OVCAR-3 ovarian it was > 100 µM.
